Consider one molecule from BindingDB's records for doi:10.7270/Q22J698B (NMMLSC, 2010).

Structures are written as SMILES.

For the test, the target named is Cell division control protein 42 homolog (Homo sapiens, UniProt P60953). Kind of test: inhibition of fluorescent GTP binding to constitutively active Cdc42 – biochemical, multiplex bead flow cytometry, Bodipy-FL-GTP, dose response (AID 1333). (A flow cytometer gives signals particle by particle.)
Chain of Cell division control protein 42 homolog (P60953 whole entry): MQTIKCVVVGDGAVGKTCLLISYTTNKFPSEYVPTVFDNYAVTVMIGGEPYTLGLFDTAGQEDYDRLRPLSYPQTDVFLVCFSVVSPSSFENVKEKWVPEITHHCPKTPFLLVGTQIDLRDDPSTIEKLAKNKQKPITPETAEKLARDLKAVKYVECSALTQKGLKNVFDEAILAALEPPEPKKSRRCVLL

In the case of `CC1(C)Cc2c(sc(NC(=S)NC(=O)c3ccccc3)c2C(=O)O)CO1` [2-(benzoylcarbamothioylamino)-5,5-dimethyl-4,7-dihydrothieno[2,3-c]pyran-3-carboxylic acid], the response was half-maximal at 92 nM (EC50).

By EC50 is commonly meant the midpoint of the concentration-response curve.
